Results from BindingDB's records for doi:10.1021/jm00145a012 (1985).

What follows are molecules tested against Dihydrofolate reductase (Bos taurus) (UniProt P00376) (assay: In vitro inhibitory concentration against beef liver dihydrofolate reductase).
Sequence of Dihydrofolate reductase (Bos taurus) (P00376 whole entry, looked up): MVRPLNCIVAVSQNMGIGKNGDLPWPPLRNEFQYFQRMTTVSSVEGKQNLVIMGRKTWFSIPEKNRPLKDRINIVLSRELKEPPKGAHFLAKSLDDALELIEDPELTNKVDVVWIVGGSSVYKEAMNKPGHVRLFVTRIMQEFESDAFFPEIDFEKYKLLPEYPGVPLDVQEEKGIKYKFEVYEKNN

IC50 [µM]	Structure (SMILES)
49	Nc1nc2ncc(CCc3ccc(C(=O)N[C@@H](CCC(=O)O)C(=O)O)cc3)cc2c(=O)[nH]1
0.071	Nc1nc(N)c2c(n1)NCC(CCc1ccc(C(=O)NC(CCC(=O)O)C(=O)O)cc1)C2 (centres undefined) [2-{4-[2-(2,4-Diamino-5,6,7,8-tetrahydro-pyrido[2,3-d]pyrimidin-6-yl)-ethyl]-benzoylamino}-pentanedioic acid]
0.043	Nc1nc(N)c2cc(CCc3ccc(C(=O)NC(CCC(=O)O)C(=O)O)cc3)cnc2n1 (centres undefined) [2-{4-[2-(2,4-Diamino-pyrido[2,3-d]pyrimidin-6-yl)-ethyl]-benzoylamino}-pentanedioic acid]
560	Nc1nc2c(c(=O)[nH]1)CC(CCc1ccc(C(=O)NC(CCC(=O)O)C(=O)O)cc1)CN2 (centres undefined) [(DDATHF) 5,10-Dideazatetrahydrofolic acid2-{4-[2-(2-Amino-4-oxo-3,4,5,6,7,8-hexahydro-pyrido[2,3-d]pyrimidin-6-yl)-ethyl]-benzoylamino}-pentanedioic acid]
